Measured values taken from patent US20250230193A1, “CYCLIC COMPOUND HAVING SELECTIVE KRAS INHIBITORY EFFECT ON HRAS AND NRAS” (CHUGAI SEIYAKU KABUSHIKI KAISHA, priority 2022, published 2025).
Where a SMILES comes first, the peptide text is derived from it. Bridges are numbered along the chain shown (N, C = ends). [ ]: non-standard residue; d: D form. The star is where a group is joined. hPhe(3-Cl-4-CF3) = N[C@@H](CCc1ccc(C(F)(F)F)c(Cl)c1)C(=O)O; NPrPhe(4-CF3) = CCCN[C@@H](Cc1ccc(C(F)(F)F)cc1)C(=O)O; NMeGly(cPent) = CN[C@H](C(=O)O)C1CCCC1; NMeD = CN[C@@H](CC(=O)O)C(=O)O; NMeL = CN[C@@H](CC(C)C)C(=O)O; Morpholide = C1CN(*)CCO1; Ac5c = NC1(C(=O)O)CCCC1; Abu = CC[C@H](N)C(=O)O; NEtG = CCNCC(=O)O; Sar = CNCC(=O)O

Tests used:
[1] = biological target: GDP-bound NRAS wild-type protein (Homo sapiens, UniProt P01111); test: Binding to NRAS by surface plasmon resonance (SPR), Single Cycle Kinetics; conditions: for NRAS/KRAS (ratio of KD value with respect to NRAS to KD value with respect to KRAS) / NRAS/KRAS (ratio of KD value for NRAS to KD value for KRAS): GDP-bound NRAS wild-type vs GDP-bound KRAS wild-type
[2] = biological target: GDP-bound HRAS wild-type protein (Homo sapiens, UniProt P01112); test: Binding to HRAS by surface plasmon resonance (SPR), Single Cycle Kinetics; conditions: for HRAS/KRAS (ratio of KD value with respect to HRAS to KD value with respect to KRAS) / HRAS/KRAS (ratio of KD value for HRAS to KD value for KRAS): GDP-bound HRAS wild-type vs GDP-bound KRAS wild-type
Sequence of GDP-bound HRAS wild-type protein (P01112 whole entry): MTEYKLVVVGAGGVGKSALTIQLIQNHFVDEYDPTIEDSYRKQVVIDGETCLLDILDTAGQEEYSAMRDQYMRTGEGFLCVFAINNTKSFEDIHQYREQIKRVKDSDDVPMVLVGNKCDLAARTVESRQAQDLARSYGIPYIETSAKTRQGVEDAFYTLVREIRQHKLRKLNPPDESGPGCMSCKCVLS

Sequence of GDP-bound NRAS wild-type protein (P01111 whole entry): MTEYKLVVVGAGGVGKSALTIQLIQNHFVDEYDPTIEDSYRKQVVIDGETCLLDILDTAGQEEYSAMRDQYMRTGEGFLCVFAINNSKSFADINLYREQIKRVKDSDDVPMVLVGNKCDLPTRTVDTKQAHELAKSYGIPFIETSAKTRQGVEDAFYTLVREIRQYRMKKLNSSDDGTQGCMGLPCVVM

## CCO[C@@H]1C[C@H]2C(=O)NC3(CC(C)(C)C3)C(=O)N(C)[C@@H](C(CC)CC)C(=O)N(C)[C@H](C(=O)N(C)C)CC(=O)N(C)[C@@H](COC)C(=O)N[C@@H]([C@@H](C)CC)C(=O)N(C)CC(=O)N(C)[C@H]3C/C=C\CCN(C3=O)[C@@H](CC3CCCCC3)C(=O)N(C)CC(=O)N[C@@H](CCc3ccc(C(F)(F)F)c(Cl)c3)C(=O)N2C1 [PP2468]
[1]; SPR
  NRAS/KRAS (ratio of KD value with respect to NRAS to KD value with respect to KRAS): AA (a compound having 20 or more is denoted as AA)
[2]; SPR
  HRAS/KRAS (ratio of KD value with respect to HRAS to KD value with respect to KRAS): A (a compound having 10 or more and less than 20 is denoted as A)

## CCCOC[C@H]1C(=O)N[C@@H]([C@@H](C)CC)C(=O)N(C)CC(=O)N(C)[C@H]2C/C=C\CCN(C2=O)[C@@H](Cc2ccc(C(F)(F)F)cc2)C(=O)N(C)CC(=O)N[C@@H](CCc2ccc(C(F)(F)F)c(OC)c2)C(=O)N2C[C@H](OCC)C[C@H]2C(=O)NC2(CCC2)C(=O)N(C)[C@@H](C2CCCC2)C(=O)N(C)[C@H](C(=O)N(C)CC)CC(=O)N1C [PP2016]
[1]; KD ratio, SPR
  NRAS/KRAS (ratio of KD value for NRAS to KD value for KRAS): A (a compound having 10 or more and less than 20 is denoted as A)
[2]; KD ratio, SPR
  HRAS/KRAS (ratio of KD value for HRAS to KD value for KRAS): A (a compound having 10 or more and less than 20 is denoted as A)

## CCO[C@@H]1C[C@H]2C(=O)NC3(CCC3)C(=O)N(C)[C@@H](C3CCCC3)C(=O)N(CCc3ccccc3)[C@H](C(=O)N3CCOCC3)CC(=O)N(C)[C@@H](CC(C)C)C(=O)N[C@@H]([C@@H](C)CC)C(=O)N(C)CC(=O)N(C)[C@H]3CCCCN(C3=O)[C@@H](Cc3ccc(C(F)(F)F)cc3)C(=O)N(C)CC(=O)N[C@@H](CCc3cc(F)c(C(F)(F)F)c(F)c3)C(=O)N2C1 [PP0652]
[1]; KD ratio NRAS/KRAS, SPR
  NRAS/KRAS (ratio of KD value with respect to GDP-bound NRAS wild-type protein to KD value with respect to KRAS): B (a compound having 3 or more and less than 10 is denoted as B)
[2]; KD ratio HRAS/KRAS, SPR
  HRAS/KRAS (ratio of KD value with respect to GDP-bound HRAS wild-type protein to KD value with respect to KRAS): B (a compound having 3 or more and less than 10 is denoted as B)

## CCCOC[C@H]1C(=O)N[C@@H]([C@@H](C)CC)C(=O)N(C)CC(=O)N(C)[C@H]2C/C=C\CCN(C2=O)[C@@H](Cc2ccc(C)cc2)C(=O)N(C)CC(=O)N[C@@H](CCc2cc(F)c(C(F)(F)F)c(F)c2)C(=O)N2C[C@H](CC)C[C@H]2C(=O)NC2(CCCC2)C(=O)N(C)[C@@H](C2CCCC2)C(=O)N(C)[C@H](C(=O)N(C)C)CC(=O)N1C [PP2218]
[1]; SPR
  NRAS/KRAS (ratio of KD value with respect to NRAS to KD value with respect to KRAS): A (a compound having 10 or more and less than 20 is denoted as A)
[2]; SPR
  HRAS/KRAS (ratio of KD value with respect to HRAS to KD value with respect to KRAS): A (a compound having 10 or more and less than 20 is denoted as A)

## CC[C@H](C)[C@@H]1NC(=O)[C@H](COC)N(C)C(=O)C[C@@H](C(=O)N2CCOCC2)N(C)C(=O)[C@H](C2CCCC2)N(C)C(=O)C2(CCC2)NC(=O)[C@@H]2CC(F)(F)CN2C(=O)[C@H](CCc2cc(F)c(C(F)(F)F)c(F)c2)NC(=O)CN(C)C(=O)[C@H](Cc2ccc(C(F)(F)F)cc2)N2CCCCC[C@@H](C2=O)N(C)C(=O)[C@@H]2CCN2C1=O [PP0866]
[1]; KD ratio, SPR
  NRAS/KRAS (ratio of KD value with respect to NRAS to KD value with respect to KRAS): B (a compound having 3 or more and less than 10 is denoted as B)
[2]; KD ratio, SPR
  HRAS/KRAS (ratio of KD value with respect to HRAS to KD value with respect to KRAS): B (a compound having 3 or more and less than 10 is denoted as B)

## CCO[C@@H]1C[C@H]2C(=O)NC3(CC(C)(C)C3)C(=O)N(C)[C@@H](C(CC)CC)C(=O)N(C)[C@H](C(=O)N(C)C)CC(=O)N(C)[C@@H](C(C)C)C(=O)N[C@@H]([C@@H](C)CC)C(=O)N(C)CC(=O)N(C)[C@H]3C/C=C\CCN(C3=O)[C@@H](Cc3ccc(C(F)(F)F)cc3)C(=O)N(C)CC(=O)N[C@@H](CCc3ccc(C(F)(F)F)c(OC)c3)C(=O)N2C1 [PP2165]
[1]; SPR
  NRAS/KRAS (ratio of KD value with respect to NRAS to KD value with respect to KRAS): A (a compound having 10 or more and less than 20 is denoted as A)
[2]; SPR
  HRAS/KRAS (ratio of KD value with respect to HRAS to KD value with respect to KRAS): A (a compound having 10 or more and less than 20 is denoted as A)

## CCO[C@@H]1C[C@H]2C(=O)NC3(CCC3)C(=O)N(C)[C@@H](C3CCCC3)C(=O)N(C)[C@H](C(=O)N3CCOCC3)CC(=O)N(C)[C@@H](Cc3ccccc3)C(=O)N[C@@H]([C@@H](C)CC)C(=O)N(C)CC(=O)N(C)[C@H]3CCCCCN(C3=O)[C@@H](Cc3ccc(C(F)(F)F)cc3)C(=O)N(C)CC(=O)N[C@@H](CCc3cc(F)c(C(F)(F)F)c(F)c3)C(=O)N2C1 [PP0687]
[1]; KD ratio NRAS/KRAS, SPR
  NRAS/KRAS (ratio of KD value with respect to GDP-bound NRAS wild-type protein to KD value with respect to KRAS): B (a compound having 3 or more and less than 10 is denoted as B)
[2]; KD ratio HRAS/KRAS, SPR
  HRAS/KRAS (ratio of KD value with respect to GDP-bound HRAS wild-type protein to KD value with respect to KRAS): B (a compound having 3 or more and less than 10 is denoted as B)

## CCCN1C(=O)CN(C)C(=O)CN(CC)C(=O)[C@H](CC)NC(=O)[C@H](CC(C)C)N(C)C(=O)C[C@@H](C(=O)N2CCOCC2)N(C)C(=O)[C@H](C2CCCC2)N(C)C(=O)C2(CCCC2)NC(=O)[C@@H]2CCCN2C(=O)[C@H](CCc2ccc(C(F)(F)F)c(Cl)c2)NC(=O)CN(C)C(=O)[C@@H]1Cc1ccc(C(F)(F)F)cc1 [PP0290] ([NMeL][Abu][NEtG][Sar][NPrPhe(4-CF3)][Sar][hPhe(3-Cl-4-CF3)]P[Ac5c][NMeGly(cPent)][NMeD]-Morpholide; lactam N-11)
[1]; KD ratio NRAS/KRAS, SPR
  NRAS/KRAS (ratio of KD for GDP-bound NRAS wild-type to KD for KRAS): B (a compound having 3 or more and less than 10 is denoted as B)
[2]; KD ratio HRAS/KRAS, SPR
  HRAS/KRAS (ratio of KD for GDP-bound HRAS wild-type to KD for KRAS): C (A compound having a KD ratio of 0.1 or more and less than 3 is denoted as C)

## CCOC[C@H]1C(=O)N[C@@H]([C@@H](C)CC)C(=O)N(C2CC2)CC(=O)N(C)[C@H]2C/C=C\CCN(C2=O)[C@@H](Cc2ccc(C)cc2)C(=O)N(C)CC(=O)N[C@@H](CCc2ccc(C(F)(F)F)c(OC)c2)C(=O)N2C[C@H](OCC)C[C@H]2C(=O)NC2(CC(C)(C)C2)C(=O)N(C)[C@@H](CC(C)(C)C)C(=O)N(C)[C@H](C(=O)N(C)C)CC(=O)N1C [PP2724]
[1]; KD ratio NRAS/KRAS, class symbols
  NRAS/KRAS (ratio of KD value with respect to GDP-bound NRAS wild-type protein to KD value with respect to KRAS): A (a compound having 10 or more and less than 20 is denoted as A)
[2]; KD ratio HRAS/KRAS, class symbols
  HRAS/KRAS (ratio of KD value with respect to GDP-bound HRAS wild-type protein to KD value with respect to KRAS): B (a compound having 3 or more and less than 10 is denoted as B)

## CC[C@H](C)[C@@H]1NC(=O)[C@H](CC)N(C)C(=O)C[C@@H](C(=O)N2CCOCC2)N(C)C(=O)[C@H](C2CCCC2)N(C)C(=O)C2(CCCC2)NC(=O)[C@@H]2CCCN2C(=O)[C@H](CCc2cc(F)c(C(F)(F)F)c(F)c2)NC(=O)CN(C)C(=O)[C@H](Cc2ccc(C(F)(F)F)cc2)N2CCCCC[C@@H](C2=O)N(C)C(=O)CN(C)C1=O [PP0488]
[1]; KD ratio NRAS/KRAS, SPR
  NRAS/KRAS (ratio of KD value with respect to GDP-bound NRAS wild-type protein to KD value with respect to KRAS): A (a compound having 10 or more and less than 20 is denoted as A)
[2]; KD ratio HRAS/KRAS, SPR
  HRAS/KRAS (ratio of KD value with respect to GDP-bound HRAS wild-type protein to KD value with respect to KRAS): B (a compound having 3 or more and less than 10 is denoted as B)

## CCC[C@H]1C(=O)N[C@@H]([C@@H](C)CC)C(=O)N(C)CC(=O)N(C)[C@H]2C/C=C\CCN(C2=O)[C@@H](Cc2ccc(C)cc2)C(=O)N(C)CC(=O)N[C@@H](CCc2ccc(C(F)(F)F)c(OC)c2)C(=O)N2C[C@H](C)C[C@H]2C(=O)NC2(CC(C)(C)C2)C(=O)N(C)[C@@H](C2CCCC2)C(=O)N(C)[C@H](C(=O)N(C)CC)CC(=O)N1C [PP1891]
[1]; KD ratio, SPR
  NRAS/KRAS (ratio of KD value for NRAS to KD value for KRAS): A (a compound having 10 or more and less than 20 is denoted as A)
[2]; KD ratio, SPR
  HRAS/KRAS (ratio of KD value for HRAS to KD value for KRAS): A (a compound having 10 or more and less than 20 is denoted as A)
